According to US20060069132A1, “Azolecarboxamide herbicides” (priority 2004, published 2006):

Columns and labels:
Assay in all cases: Test E pre-/postemergence herbicide test
dallisgrass = assay type: in vivo, Paspalum dilatatum; details: Preemergence
In short: (§1)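 Seeds were planted and treated preemergence with test chemicals in a non-phytotoxic solvent mixture containing surfactant; plants at 2 to 18 cm (1- to 4-leaf stage) received postemergence applications of the same formulation. After 12 to 14 days in a greenhouse, injury was visually rated against untreated controls on a 0 to 100 scale.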

common chickweed = assay type: in vivo, Stellaria media; details: Preemergence
In short: as §1

downy bromegrass = assay type: in vivo, Bromus tectorum; details: Preemergence
In short: as §1

goosegrass = assay type: in vivo, Eleusine indica; details: Preemergence
In short: as §1

common groundsel = assay type: in vivo, Senecio vulgaris; details: Preemergence
In short: as §1

annual bluegrass = assay type: in vivo, Poa annua; details: Preemergence
In short: as §1

purple nutsedge = assay type: in vivo, Cyperus rotundus; details: Preemergence, scale 0 (no effect) to 100 (complete control)
In short: as §1

common sowthistle = assay type: in vivo, Sonchus oleraceous; details: Preemergence
In short: as §1

barnyardgrass = assay type: in vivo, Echinochloa crus-galli; details: Preemergence
In short: as §1

pitted morningglory = assay type: in vivo, Ipomoea lacunosa; details: Preemergence
In short: as §1

itchgrass = assay type: in vivo, Rottboellia cochinchinensis; details: Preemergence
In short: as §1

Italian ryegrass = assay type: in vivo, Lolium multiflorum; details: Preemergence
In short: as §1

johnsongrass = assay type: in vivo, Sorghum halepense; details: Preemergence
In short: as §1

southern sandbur = assay type: in vivo, Cenchrus echinatus; details: Preemergence
In short: as §1

common purslane = assay type: in vivo, Portulaca oleracea; details: Preemergence
In short: as §1

common mallow = assay type: in vivo, Malva sylvestris; details: Preemergence
In short: as §1

[1] = 250 g ai/ha, scale 0 (no effect) to 100 (complete control)
[2] = 500 g ai/ha, scale 0 (no effect) to 100 (complete control)

Cc1nn(C(C)(C)C)nc1C(=O)Nc1cccc(C(=O)N(C)C)c1 [Compound 391]
Plant response rating, Dallisgrass (dallisgrass; 62 g ai/ha, scale 0 to 100): 60
Plant response rating, Dallisgrass (dallisgrass; 125 g ai/ha, scale 0 to 100): 80
Plant response rating, Dallisgrass (dallisgrass; [1]): 95
Plant response rating, Dallisgrass (dallisgrass; [2]): 95
Plant response rating, Chickweed (common chickweed; 62 g ai/ha, scale 0 to 100): 90
Plant response rating, Chickweed (common chickweed; 125 g ai/ha, scale 0 to 100): 90
Plant response rating, Chickweed (common chickweed; [1]): 100
Plant response rating, Chickweed (common chickweed; [2]): 100
Plant response rating, Bromegrass, Downy (downy bromegrass; 62 g ai/ha, scale 0 to 100): 10
Plant response rating, Bromegrass, Downy (downy bromegrass; 125 g ai/ha, scale 0 to 100): 30
Plant response rating, Bromegrass, Downy (downy bromegrass; [1]): 95
Plant response rating, Bromegrass, Downy (downy bromegrass; [2]): 95
Plant response rating, Goosegrass (goosegrass; 62 g ai/ha, scale 0 to 100): 30
Plant response rating, Goosegrass (goosegrass; 125 g ai/ha, scale 0 to 100): 80
Plant response rating, Goosegrass (goosegrass; [1]): 90
Plant response rating, Goosegrass (goosegrass; [2]): 95
Plant response rating, Groundsel (common groundsel; 125 g ai/ha, scale 0 to 100): 95
Plant response rating, Groundsel (common groundsel; [1]): 100
Plant response rating, Groundsel (common groundsel; [2]): 100
Plant response rating, Bluegrass (annual bluegrass; 62 g ai/ha, scale 0 to 100): 95
Plant response rating, Bluegrass (annual bluegrass; 125 g ai/ha, scale 0 to 100): 95
Plant response rating, Bluegrass (annual bluegrass; [1]): 95
Plant response rating, Bluegrass (annual bluegrass; [2]): 95
Plant response rating, Nutsedge, Purple (purple nutsedge; 250 g ai/ha): 75
Plant response rating, Nutsedge, Purple (purple nutsedge; 500 g ai/ha): 75
Plant response rating, Sowthistle (common sowthistle; 62 g ai/ha, scale 0 to 100): 50
Plant response rating, Sowthistle (common sowthistle; 125 g ai/ha, scale 0 to 100): 75
Plant response rating, Sowthistle (common sowthistle; [1]): 100
Plant response rating, Sowthistle (common sowthistle; [2]): 100
Plant response rating, Barnyardgrass (barnyardgrass; 62 g ai/ha, scale 0 to 100): 50
Plant response rating, Barnyardgrass (barnyardgrass; 125 g ai/ha, scale 0 to 100): 100
Plant response rating, Barnyardgrass (barnyardgrass; [1]): 100
Plant response rating, Barnyardgrass (barnyardgrass; [2]): 100
Plant response rating, Morningglory (pitted morningglory; 62 g ai/ha, scale 0 to 100): 10
Plant response rating, Morningglory (pitted morningglory; 125 g ai/ha, scale 0 to 100): 60
Plant response rating, Morningglory (pitted morningglory; [1]): 80
Plant response rating, Morningglory (pitted morningglory; [2]): 80
Plant response rating, Itchgrass (itchgrass; 62 g ai/ha, scale 0 to 100): 50
Plant response rating, Itchgrass (itchgrass; 125 g ai/ha, scale 0 to 100): 80
Plant response rating, Itchgrass (itchgrass; [1]): 90
Plant response rating, Itchgrass (itchgrass; [2]): 95
Plant response rating, Ryegrass, Italian (Italian ryegrass; 125 g ai/ha, scale 0 to 100): 80
Plant response rating, Ryegrass, Italian (Italian ryegrass; [1]): 95
Plant response rating, Ryegrass, Italian (Italian ryegrass; [2]): 95
Plant response rating, Johnsongrass (johnsongrass; 62 g ai/ha, scale 0 to 100): 40
Plant response rating, Johnsongrass (johnsongrass; 125 g ai/ha, scale 0 to 100): 60
Plant response rating, Johnsongrass (johnsongrass; [1]): 85
Plant response rating, Johnsongrass (johnsongrass; [2]): 100
Plant response rating, Sandbur (southern sandbur; 62 g ai/ha, scale 0 to 100): 10
Plant response rating, Sandbur (southern sandbur; 125 g ai/ha, scale 0 to 100): 70
Plant response rating, Sandbur (southern sandbur; [1]): 80
Plant response rating, Sandbur (southern sandbur; [2]): 80
Plant response rating, Purslane (common purslane; 62 g ai/ha, scale 0 to 100): 50
Plant response rating, Purslane (common purslane; 125 g ai/ha, scale 0 to 100): 95
Plant response rating, Purslane (common purslane; [1]): 100
Plant response rating, Purslane (common purslane; [2]): 100
Plant response rating, Mallow (common mallow; 62 g ai/ha, scale 0 to 100): 80
Plant response rating, Mallow (common mallow; 125 g ai/ha, scale 0 to 100): 80
Plant response rating, Mallow (common mallow; [1]): 100
Plant response rating, Mallow (common mallow; [2]): 100
